Literature values in patent US20210363254A1, “PHARMACEUTICAL COMBINATIONS” (Novartis AG, priority 2018, published 2021).

Test system: renal cell carcinoma (RCC)
Settings: RCC patients beyond first-line therapy; cited from earlier work

Substance: Nivolumab: inhibitor of the PD-1/PD-L1 interaction approved for use in RCC
- OS benefit compared with everolimus: 5.4 months
- median OS: 25 months
